The values below come from ChEMBL document CHEMBL1135902, “Molecular interaction of the antagonist N-(piperidin-1-yl)-5-(4-chlorophenyl)-1- (2,4-dichlorophenyl)-4-methyl-1H-pyrazole-3-carboxamide with the CB1 cannabinoid receptor” (J Med Chem, 2002).

SMILES strings stand for the structures.

The target of the experiment is Cannabinoid receptor 1 (Rattus norvegicus, UniProt P20272). It is filed as cell membranes, Brain, Brain membranes.
Sequence of Cannabinoid receptor 1 (P20272 whole entry): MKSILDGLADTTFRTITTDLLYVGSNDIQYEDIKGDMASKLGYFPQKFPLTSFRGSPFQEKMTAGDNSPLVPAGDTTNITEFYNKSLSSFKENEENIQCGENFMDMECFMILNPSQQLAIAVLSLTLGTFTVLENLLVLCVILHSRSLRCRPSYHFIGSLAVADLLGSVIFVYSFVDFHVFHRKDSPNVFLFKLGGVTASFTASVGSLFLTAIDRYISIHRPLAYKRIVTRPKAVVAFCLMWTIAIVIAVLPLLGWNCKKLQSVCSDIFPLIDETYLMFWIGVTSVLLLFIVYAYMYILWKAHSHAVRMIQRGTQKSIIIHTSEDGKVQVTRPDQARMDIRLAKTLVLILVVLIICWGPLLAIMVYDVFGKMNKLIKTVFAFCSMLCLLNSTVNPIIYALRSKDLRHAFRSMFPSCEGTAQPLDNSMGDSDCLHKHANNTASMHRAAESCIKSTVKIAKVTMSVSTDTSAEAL
Description: Inhibition of [3H]CP-55940 binding to cannabinoid receptor 1 in rat brain membranes.
With `Cc1c(COCCN2CCCCC2)nn(-c2ccc(Cl)cc2Cl)c1-c1ccc(Cl)cc1`, the Ki turned out to be 232 nM.
Consider `CCCCn1nc(C(=O)NN2CCCCC2)c(C)c1-c1ccccc1`, for which affinity was put at a Ki of 187 nM.
Take `CCCCCNC(=O)c1nn(-c2ccc(Cl)cc2Cl)c(-c2ccc(Cl)cc2)c1C`: the affinity, expressed as Ki, was 3 nM.
As to `CCCCc1ccc(-n2nc(C(=O)NN3CCCCC3)c(C)c2-c2ccc(Cl)cc2)cc1`, the Ki was 256 nM.
The value for `CCCCCn1nc(C(=O)NN2CCCCC2)c(C)c1-c1ccc(Br)cc1` was 63 nM; that for `Cc1c(C(=O)N(C)C2CCCCC2)nn(-c2ccc(Cl)cc2Cl)c1-c1ccc(Br)cc1` was 56 nM; that for `Cc1c(C(=O)NCCO)nn(-c2ccc(Cl)cc2Cl)c1-c1ccc(Br)cc1` was 165 nM.
In turn, `Cc1c(C(=O)NN2CCCCC2)nn(-c2ccc(N)cc2)c1-c1ccc(Cl)cc1` gave a Ki of 72 nM.
The molecule `CCCCCn1nc(C(=O)NN2CCCCC2)c(C)c1-c1ccccc1` had a Ki of 23 nM.
With `Cc1c(C(=O)NN2CCCC2)nn(-c2ccc(Cl)cc2Cl)c1-c1ccc(Br)cc1`, the inhibitory constant (Ki) worked out at 17.1 nM. This Ki and that of the molecule before are within 1.5-fold of each other.
Molecule `Cc1c(COCc2ccc(F)cc2)nn(-c2ccc(Cl)cc2Cl)c1-c1ccc(Cl)cc1` yielded an inhibition constant Ki of 6 nM.
For `CC(=O)c1ccc(-c2c(C#N)c(C(=O)Nc3ccccc3)nn2-c2ccccc2Cl)cc1`, the Ki is 7 nM.
The value for `CCCCCCCn1nc(C(=O)NN2CCCCC2)c(C)c1-c1ccccc1` was 47 nM.
In turn, `CCCCCC(=O)c1nn(-c2ccc(Cl)cc2Cl)c(-c2ccc(Cl)cc2)c1C` displayed a Ki of 25 nM.
The molecule `CCCCCc1ccc(-c2c(C)c(C(=O)NN3CCCCC3)nn2-c2ccc(Cl)cc2Cl)cc1` yielded an inhibition constant Ki of 1 nM.
`CCC(C)c1ccc(-n2nc(C(=O)NN3CCCCC3)c(C)c2-c2ccc(Cl)cc2)cc1` (configuration not stated): the inhibitory constant (Ki) came to 37 nM.
As to `Cc1c(C(=O)NN2CCOCC2)nn(-c2ccc(Cl)cc2Cl)c1-c1ccc(Br)cc1`, the Ki worked out at 19 nM.
The molecule `Cc1c(C(=O)NC2CCCCC2)nn(-c2ccc(Cl)cc2Cl)c1-c1ccc(Br)cc1` returned an inhibitory constant (Ki) of 15 nM.
For `Cc1c(C(=O)NN2CCCCC2)nn(-c2ccc([N+](=O)[O-])cc2)c1-c1ccc(Cl)cc1`, the inhibition constant (Ki) is 109 nM.
In turn, `Cc1c(COCC2CCCCC2)nn(-c2ccc(Cl)cc2Cl)c1-c1ccc(Cl)cc1` yielded a Ki of 100 nM. This Ki and that of the molecule before are within 1.5-fold of each other.
The value for `CCCCCCn1nc(C(=O)NN2CCCCC2)c(C)c1-c1ccccc1` was 21 nM; that for `O=C(NN1CCCCC1)c1nn(-c2ccc(Cl)cc2Cl)c2c([N+](=O)[O-])cccc12` was 202 nM; that for `Cc1c(C(=O)NN2CCCCC2)nn(-c2ccc(Cl)cc2)c1-c1ccc(Cl)cc1` was 55 nM.
The value for `CCCCCc1ccc(-n2nc(C(=O)NN3CCCCC3)c(C)c2-c2ccc(Cl)cc2)cc1` was 1360 nM; that for `O=C(NN1CCCCC1)c1nn(-c2ccc(Cl)cc2Cl)c2c(Cl)cccc12` was 746 nM; that for `CCCCCCCNC(=O)c1nn(-c2ccc(Cl)cc2Cl)c(-c2ccc(Cl)cc2)c1C` was 3 nM.
The value for `Cc1c(C(=O)NN2CCCCC2)nn(C2CCCCC2)c1-c1ccccc1` was 391 nM.

As usually defined, the Ki is a measure of affinity in units of concentration, obtained from inhibition or displacement. A low value points to tighter binding.
